According to paper PMC6372683, “Mechanism of the natural product moracin-O derived MO-460 and its targeting protein hnRNPA2B1 on HIF-1α inhibition” (Experimental & Molecular Medicine, 2019):

Molecular target: T1, hnRNPA2B1 GRD3 (301–353 aa) (Homo sapiens, UniProt P22626)
T1 construct: hnRNPA2B1(301-353aa); made in house; host or cells: bacteria (pGEX6P-1 vector)
T1 sequence (P22626 301-353): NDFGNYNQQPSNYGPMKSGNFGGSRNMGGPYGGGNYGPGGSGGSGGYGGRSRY
Assay: BLItz association-dissociation binding assay, GST-fused GRD3
Settings: Con. 5 uM
Method: The binding capacity of hnRNPA2B1 to Biotin-MO-460 was also analyzed using a BLItz™ (Fortebio, Inc., CA, US) instrument with a streptavidin-coated biosensor tip (Pall, USA). The streptavidin-coated tips were pre-wetted for 10 min in an incubation buffer (10 mM HEPES pH 7.4, 1% BSA and 0.05% Tween 20). The streptavidin-coated tips were immobilized with 1 μM Biotin-MO-460 in incubation buffer (10 mM HEPES pH 7.4, 1% BSA and 0.05% Tween 20) for 5 min. The biosensor was washed with HEPES (pH 7.4) and incubated with 250-, 500- and 1,000-nM concentrations of the full-length and truncated hnRNPA2B1 proteins for 3 min. The concentrations were then incubated with HEPES for another 3 min to desorb the protein. Analysis of the accurate and precise kinetic constants was performed by the BLItz data analysis software (BLItz Pro 1.1).

Kd: 299 nM
Structure (SMILES): CC(C)(O)[C@H]1Cc2cc3cc(-c4ccc(O)cc4)oc3cc2O1 [MO-460, (R)-4-[6-(1-Hydroxy-1-methylethyl)-5,6-dihydro-benzo[1,2-b;5,4-b’]difuran-2-yl]-phenol]
